Several values for one entry are separate records, joined by “and”; a condition that tells them apart may be missing. Equal values may be shown once.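 1) Cells in 96-well plates. 2) Compound, 48 h, 5 concentrations. 3) Linear interpolation between surrounding doses. 4) Unreached endpoint = highest concentration. GI50 marks 50% less growth. TGI: total growth inhibition.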
Experiments:
Experiment in all cases: NCI tumour cell line growth inhibition, 48 h
[1] = tested on: CCRF-CEM leukemia
[2] = tested on: EKVX NSCLC
[3] = tested on: IGROV1 ovarian
[4] = tested on: M14 melanoma
[5] = tested on: OVCAR-3 ovarian
[6] = tested on: SR leukemia
[7] = tested on: SW-620 colon
[8] = tested on: UACC-257 melanoma
[9] = tested on: SN12C renal
[10] = tested on: K-562 leukemia

CCN(CC)C(=O)CC1=C(C)/C(=C/c2[nH]c(-c3ccc[nH]3)cc2OC)N=C1C
GI50 [1]: 0.258 µM | TGI [1]: 35 µM | GI50 [2]: 0.452 µM | TGI [2]: 38.7 µM | GI50 [3]: 0.43 µM | TGI [3]: 15.6 µM | GI50 [4]: 0.227 µM | TGI [4]: 0.607 µM | GI50 [5]: 0.509 µM | TGI [5]: 14.1 µM | GI50 [6]: 0.289 µM | TGI [6]: 0.994 µM | GI50 [7]: 0.334 µM | TGI [7]: 13.4 µM | GI50 [8]: 1.03 µM | TGI [8]: 4.85 µM

CN1CCN(CCCOc2cccc3nc(Nc4ccc(Cl)c(F)c4)ccc23)CC1
GI50 [2]: 1.89 µM | TGI [2]: 3.86 µM | GI50 [3]: 1.95 µM | TGI [3]: 4.31 µM | GI50 [4]: 1.73 µM | TGI [4]: 3.37 µM | GI50 [5]: 1.7 µM | TGI [5]: 3.29 µM | GI50 [9]: 4.16 µM | TGI [9]: 16 µM | GI50 [7]: 1.97 µM | TGI [7]: 3.71 µM | GI50 [8]: 2.04 µM | TGI [8]: 3.64 µM

C/C=C(\C)c1cc(=O)c2c(C)cc3c(c2o1)C(=O)c1c(O)c(C2CC(C)(N(C)C)C(O)C(C)O2)cc(C2CC(N(C)C)C(O)C(C)O2)c1C3=O (centres undefined)
TGI [1]: > 52 µM | TGI [2]: 1.59 µM | TGI [3]: 3.2 µM and > 27.6 µM | TGI [10]: > 53.6 µM | TGI [4]: 0.312 µM | TGI [6]: 12 µM | TGI [7]: 1.96 µM and 16.7 µM | GI50 [8]: 0.505 µM and 2.59 µM | TGI [8]: 1.9 µM and 8.55 µM

N=Nc1c(OC(=O)Nc2ccccc2)[nH]c2ccccc12
TGI [2]: > 100 µM | TGI [3]: 42.2 µM | TGI [10]: > 100 µM | TGI [4]: 37.9 µM | TGI [5]: 26.7 µM | TGI [9]: 48.7 µM | TGI [6]: > 100 µM | TGI [7]: > 100 µM | TGI [8]: 92.2 µM

Nc1ncnc2c1ncn2C1OC(CSC(F)(F)F)C(O)C1O (centres undefined)
TGI [1]: > 100 µM | TGI [2]: > 100 µM | TGI [3]: > 100 µM | TGI [10]: > 100 µM | TGI [4]: > 100 µM | TGI [5]: > 100 µM | TGI [9]: > 100 µM | TGI [7]: > 100 µM | TGI [8]: > 100 µM

COc1ccc(C2=Nc3ccccc3SC(C)C2)cc1 (centres undefined)
TGI [1]: > 100 µM | TGI [2]: > 100 µM | TGI [3]: > 100 µM | TGI [10]: 83.3 µM | TGI [4]: > 100 µM | TGI [5]: > 100 µM | TGI [9]: > 100 µM | TGI [7]: > 100 µM | TGI [8]: > 100 µM

Cc1ccc(C2CC(c3ccc([N+](=O)[O-])cc3)=Nc3ccccc3S2)cc1 (centres undefined)
TGI [1]: 34.2 µM | TGI [2]: > 100 µM | TGI [3]: 87.5 µM | TGI [10]: 41.5 µM | TGI [4]: > 100 µM | TGI [5]: 99.7 µM | TGI [9]: > 100 µM | TGI [7]: 46.6 µM | TGI [8]: > 100 µM

Cc1c(C(=O)CC(=O)C(=O)Nc2c(C(C)C)cccc2C(C)C)[n+](=O)c2ccccc2n1[O-]
TGI [1]: 7.84 µM | TGI [2]: 29 µM | TGI [3]: 11.4 µM | TGI [10]: 31.1 µM | TGI [4]: 10.8 µM | TGI [5]: 5.29 µM | TGI [9]: 12.2 µM | TGI [7]: 13.2 µM | TGI [8]: 12.6 µM

O=[N+]([O-])c1cc([N+](=O)[O-])c(Cl)c(Cl)c1Cl
GI50 [1]: 0.459 µM | TGI [1]: 5.78 µM | GI50 [2]: 2.74 µM | TGI [2]: 10.5 µM | GI50 [3]: 1.23 µM | TGI [3]: 7.25 µM | GI50 [10]: 0.725 µM | TGI [10]: 10.9 µM | GI50 [5]: 1.18 µM | TGI [5]: 2.4 µM | GI50 [6]: 0.639 µM | TGI [6]: 5.86 µM | GI50 [7]: 0.535 µM | TGI [7]: 1.94 µM | GI50 [8]: 1.43 µM | TGI [8]: 2.83 µM

C=C[C@@]1(C)CCC2(O)C(CCC3C2(C)CCC[C@@]3(C)COC(=O)CC(=O)OC)C1 (some centres undefined)
TGI [1]: > 100 µM | TGI [3]: 71.7 µM | TGI [10]: 63.5 µM | TGI [4]: 32.7 µM | TGI [5]: 32.5 µM | TGI [9]: 38.2 µM | TGI [6]: 43.9 µM | TGI [7]: 31.7 µM | TGI [8]: 36.5 µM

— PubChem BioAssay (NCI)
